The values below are quoted from earlier work in patent publication US20080038403A1, “WEIGHT MANAGEMENT SYSTEM FOR OBESE ANIMALS” (MARS INCORPORATED, priority 2002, published 2008).

The conditions of data set [1]: dietary consumption.
For data set [2] the following is noted: dietary consumption. The source holds these as a separate data set.

Take 1,3-diacylglycerol: in data set [1], the serum cholesterol levels entry is reported as “lowers” and the serum triglyceride levels result is recorded as “lowers”. For the same substance, in data set [2], the body weight entry is on record as “decreases” and the regional fat deposition result is reported as “decreases”.
